Data published in patent US7981883B2, “Substituted spiro-compounds and the use thereof for producing medicaments” (Gruenenthal GmbH, priority 2005, dated 2011).

How the values were obtained:
VR1 (rat) = target: T1, VR1 (rat) (Rattus norvegicus, UniProt O35433); assay: Functional FLIPR Ca2+ inflow assay on rat-species vanilloid receptor 1 in rat dorsal root ganglia cells; assay type: cell-based; details: test compound 10 μM; for inhibition at 10 µM / VR1 (rat) (% inhibition compared to 10 μM CP): then 100 nM capsaicin after 5 min, relative to maximum inhibition with 10 μM capsaicin; for inhibition at 10 µM: read-out: VR1 (rat) (% inhibition compared to 10 μM CP); for activation at 10 µM / VR1 (rat) (% stimulation compared to 10 μM CP): Ca2+ signal relative to 10 μM capsaicin (CP); for activation at 10 µM: read-out: VR1 (rat) (% stimulation compared to 10 μM CP)
T1 construct: from tissue; host or cells: primary cells dissociated from rat dorsal root ganglia
Excerpt: I. Functional Testing Carried Out on the Vanilloid Receptor 1 (VR1/TRPV1 Receptor)
The agonistic or antagonistic effect of the substances to be tested can be determined on the rat-species vanilloid receptor 1 (VR1/TRPV1) using the following assay. According to this assay, the Ca^2+ inflow is quantified through the receptor channel using a Ca^2+-sensitive dye (type Fluo-4, Molecular Probes Europe BV, Leiden, Netherlands) in a fluorescent imaging plate reader (FLIPR, Molecular Devices, Sunnyvale, USA).
Complete medium: 50 mL HAMS F12 nutrient mixture (Gibco Invitrogen GmbH, Karlsruhe, Germany) with
10% by volume of FCS (foetal calf serum, Gibco Invitrogen GmbH, Karlsruhe, Germany, […]);
2 mM L-glutamine (Sigma, Munich, Germany);
1% by weight of AA solution (antibiotic/antimyotic solution, PAA, Pasching, Austria) and 25 ng/ml NGF medium (2.5 S, Gibco Invitrogen GmbH, Karlsruhe, Germany)
Cell culture plate: Poly-D-lysine-coated, black 96 well plates having a clear base (96 well black/clear plate, BD Biosciences, Heidelberg, Germany) were additionally coated with laminin (Gibco Invitrogen GmbH, Karlsruhe, Germany), the laminin being diluted with PBS (Ca—Mg-free PBS, Gibco Invitrogen GmbH, Karlsruhe, Germany) to a concentration of 100 μg/mL. Aliquots having a laminin concentration of 100 μg/mL were removed and stored at −20° C. The aliquots were diluted with PBS in a ratio of 1:10 to 10 μg/mL laminin and in each case 50 μL of the solution were pipetted into a recess in the cell culture plate. The cell culture plates were incubated for at least two hours at 37° C., the excess solution was removed by suction-filtration and the recesses were each washed twice with PBS. The coated cell culture plates were stored with excess PBS which was not removed until just before the feeding of the cells.
The vertebral column was removed from decapitated rats and placed immediately into cold HBSS buffer (Hank's buffered saline solution, Gibco Invitrogen GmbH, Karlsruhe, Germany), i.e. buffer located in an ice bath, mixed with 1% by volume (percent by volume) of an AA solution (antibiotic/antimyotic solution, PAA, Pasching, Austria). The vertebral column was cut longitudinally and removed together with fasciae from the vertebral canal. Subsequently, the dorsal root ganglia (DRG) were removed and again stored in cold HBSS buffer mixed with 1% by volume of an AA solution. The DRG, from which all blood remnants and spinal nerves had been removed, were transferred in each case to 500 μL of cold type 2 collagenase (PAA, Pasching, Austria) and incubated for 35 minutes at 37° C. After the addition of 2.5% by volume of trypsin (PAA, Pasching, Austria), incubation was continued for 10 minutes at 37° C. After complete incubation, the enzyme solution was carefully pipetted off and 500 μL of complete medium were added to each of the remaining DRG. The DRG were in each case suspended several times, drawn through cannulae No. 1, No. 12 and No. 16 using a syringe and transferred to a 50 mL Falcon tube which was filled up to 15 mL with complete medium. The contents of each Falcon tube was in each case filtered through a 70 μm Falcon filter element and centrifuged for 10 minutes at 1,200 rpm and room temperature. The resulting pellet was in each case taken up in 250 μL of complete medium and the number of cells determined.
The number of cells in the suspension was set to 3×10^5 per mL and 150 μL of this suspension were in each case introduced into a recess in the cell culture plates coated as described hereinbefore. In the incubator the plates were left for two to three days at 37° C., 5% by volume of CO2 and 95% relative humidity. […]

VR1 (human) = target: T2, VR1 (human) (Homo sapiens, UniProt Q8NER1); assay: Functional FLIPR Ca2+ inflow assay on VR1 (human), CHO K1 cells stably transfected with the VR1 gene; assay type: cell-based; details: test compound 10 μM; for inhibition at 10 µM / activation at 10 µM: CHO-K1; for inhibition at 10 µM / VR1 (human) (% inhibition compared to 10 μM CP): then 100 nM capsaicin after 5 min, relative to maximum inhibition with 10 μM capsaicin; for inhibition at 10 µM: read-out: VR1 (human) (% inhibition compared to 10 μM CP); for activation at 10 µM / VR1 (human) (% stimulation compared to 10 μM CP): Ca2+ signal relative to 10 μM capsaicin (CP); for activation at 10 µM: read-out: VR1 (human) (% stimulation compared to 10 μM CP)
T2 construct: expressed in transfected cells; host or cells: CHO K1 cells (ECACC)
Excerpt: II. Functional Testing Carried Out on the Vanilloid Receptor (VR1)
The agonistic or antagonistic effect of the substances to be tested can also be determined on the vanilloid receptor (VR1) using the following assay. According to this assay, the Ca^2+ inflow is quantified through the channel using a Ca^2+-sensitive dye (type Fluo-4, Molecular Probes Europe BV, Leiden, Netherlands) in a fluorescent imaging plate reader (FLIPR, Molecular Devices, Sunnyvale, USA).
Chinese hamster ovary cells (CHO K1 cells, European Collection of Cell Cultures (ECACC) United Kingdom) were stably transfected with the VR1 gene. For functional testing, these cells were plated out on poly-D-lysine-coated black 96 well plates having a clear base (BD Biosciences, Heidelberg, Germany) at a density of 25,000 cells/well. The cells were incubated overnight at 37° C. and 5% CO2 in a culture medium (Ham's F12 nutrient mixture, 10% by volume of FCS (foetal calf serum), 18 μg/ml L-proline). The next day the cells were incubated with Fluo-4 (Fluo-4 2 μM, 0.01% by volume of Pluronic F127, Molecular Probes in HBSS (Hank's buffered saline solution), Gibco Invitrogen GmbH, Karlsruhe, Germany) for 30 minutes at 37° C. Subsequently, the plates were washed three times with HBSS buffer and after further incubation for 15 minutes at room temperature used for Ca^2+ measurement in a FLIPR assay. The Ca^2+-dependent fluorescence was measured before and after the addition of the substances to be tested (λex wavelength=488 nm, λem=540 nm). Quantification was carried out by measuring the highest fluorescence intensity (FC, Fluorescence Counts) over time.
The FLIPR protocol consists of 2 substance additions. First the compounds to be tested (10 μM) were pipetted onto the cells and the Ca^2+ inflow was compared with the control (capsaicin 10 μM) (% activation based on the Ca^2+ signal after the addition of 10 μM capsaicin). After 5 minutes' incubation, 100 nM of capsaicin were administered and the Ca^2+ inflow was also determined.
Desensitising agonists and antagonists led to suppression of the Ca^2+ inflow. The % inhibition was calculated compared to the maximum achievable inhibition with 10 μM of capsaicin.

T2 sequence (Q8NER1 whole entry): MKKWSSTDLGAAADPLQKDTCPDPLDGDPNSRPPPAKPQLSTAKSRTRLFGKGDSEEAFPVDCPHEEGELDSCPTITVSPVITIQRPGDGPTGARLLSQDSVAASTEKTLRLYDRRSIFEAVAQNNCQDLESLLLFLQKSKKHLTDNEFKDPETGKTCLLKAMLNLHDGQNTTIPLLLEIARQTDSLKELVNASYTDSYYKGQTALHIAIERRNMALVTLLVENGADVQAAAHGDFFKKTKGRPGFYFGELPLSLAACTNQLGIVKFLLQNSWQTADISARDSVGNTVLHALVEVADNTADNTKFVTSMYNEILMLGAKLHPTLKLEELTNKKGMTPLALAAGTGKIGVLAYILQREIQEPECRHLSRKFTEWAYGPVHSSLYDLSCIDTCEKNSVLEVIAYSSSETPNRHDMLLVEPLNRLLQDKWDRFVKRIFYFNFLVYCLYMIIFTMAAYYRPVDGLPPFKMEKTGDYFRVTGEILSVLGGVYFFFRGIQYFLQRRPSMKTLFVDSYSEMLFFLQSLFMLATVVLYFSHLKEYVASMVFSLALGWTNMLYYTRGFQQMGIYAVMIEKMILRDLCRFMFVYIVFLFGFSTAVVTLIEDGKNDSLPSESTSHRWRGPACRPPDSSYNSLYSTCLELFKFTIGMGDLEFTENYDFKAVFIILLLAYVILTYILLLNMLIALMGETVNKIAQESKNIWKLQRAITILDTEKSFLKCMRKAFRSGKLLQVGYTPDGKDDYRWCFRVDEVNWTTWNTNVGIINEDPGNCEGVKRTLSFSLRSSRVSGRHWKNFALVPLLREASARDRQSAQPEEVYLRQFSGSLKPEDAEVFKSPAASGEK
T1 sequence (O35433 whole entry): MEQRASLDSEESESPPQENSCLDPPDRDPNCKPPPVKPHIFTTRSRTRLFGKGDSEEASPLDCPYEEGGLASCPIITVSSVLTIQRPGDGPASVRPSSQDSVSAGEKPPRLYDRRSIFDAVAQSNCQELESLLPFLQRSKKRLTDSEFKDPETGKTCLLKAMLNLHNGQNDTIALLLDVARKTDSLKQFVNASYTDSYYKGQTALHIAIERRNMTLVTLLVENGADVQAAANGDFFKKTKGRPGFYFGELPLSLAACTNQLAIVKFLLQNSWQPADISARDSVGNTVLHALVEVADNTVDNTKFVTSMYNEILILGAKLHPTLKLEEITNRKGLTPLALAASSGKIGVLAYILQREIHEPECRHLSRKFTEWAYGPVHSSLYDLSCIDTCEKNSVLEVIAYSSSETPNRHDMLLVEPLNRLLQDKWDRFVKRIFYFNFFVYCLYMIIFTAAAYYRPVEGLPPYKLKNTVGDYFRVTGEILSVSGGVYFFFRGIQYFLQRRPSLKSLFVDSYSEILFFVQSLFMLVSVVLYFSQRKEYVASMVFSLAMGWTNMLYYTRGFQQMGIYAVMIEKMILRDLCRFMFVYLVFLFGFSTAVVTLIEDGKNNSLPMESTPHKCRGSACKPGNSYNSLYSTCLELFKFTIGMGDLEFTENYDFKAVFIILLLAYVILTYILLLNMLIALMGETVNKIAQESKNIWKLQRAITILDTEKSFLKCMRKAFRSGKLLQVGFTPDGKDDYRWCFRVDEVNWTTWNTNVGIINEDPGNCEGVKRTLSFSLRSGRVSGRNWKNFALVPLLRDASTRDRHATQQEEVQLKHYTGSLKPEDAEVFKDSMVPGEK

| SMILES | inhibition at 10 µM (VR1 (rat)) | activation at 10 µM (VR1 (rat)) | inhibition at 10 µM (VR1 (human)) | activation at 10 µM (VR1 (human)) | VR1 (rat) (% inhibition compared to 10 μM CP) (VR1 (rat)) | VR1 (rat) (% stimulation compared to 10 μM CP) (VR1 (rat)) | VR1 (human) (% inhibition compared to 10 μM CP) (VR1 (human)) | VR1 (human) (% stimulation compared to 10 μM CP) (VR1 (human)) |
| --- | --- | --- | --- | --- | --- | --- | --- | --- |
| CC(C)(C)C1CCC2(CC1)CC(C(=O)NCc1ccc(N)cc1)=NO2 (centres unmarked) [Example 1, 8-tert-butyl-1-oxa-2-azaspiro[4.5]dec-2-ene-3-carboxylic acid-4-aminobenzylamide] | 71.3% | 44.7% | 23.6% | 20.7% | – | – | – | – |
| CC(C)(C)C1CCC2(CC1)CC(C(=O)NCc1ccc(NS(C)(=O)=O)cc1)=NO2 (stereo not drawn) [Example 2, trans-8-tert-butyl-1-oxa-2-azaspiro[4.5]dec-2-ene-3-carboxylic acid-4-methanesulphonylaminobenzylamide] | – | – | – | – | 100.87% | −15.97% | 58.09% | −0.32% |
| CC(C)(C)C1CCC2(CC1)CC(C(=O)NCc1ccc(NS(C)(=O)=O)cc1)=NO2 (stereo not drawn) [Example 3, cis-8-tert-butyl-1-oxa-2-azaspiro[4.5]dec-2-ene-3-carboxylic acid-4-methanesulphonylaminobenzylamide] | – | – | – | – | 102.62% | 0.10% | 80.10% | −1.29% |
| CC(C)(C)C1CCC2(CC1)CC(C(=O)Nc1cccc3cnccc13)=NO2 (centres unmarked) [Example 4, 8-tert-butyl-1-oxa-2-azaspiro[4.5]dec-2-ene-3-carboxylic acid isoquinolin-5-ylamide] | 73.7% | -0.54% | 76.3% | -0.33% | – | – | – | – |
| CC(C)(C)[C@H]1CC[C@]2(CC1)CC(C(=O)N1CCN(c3ncccc3C(F)(F)F)CC1)=NO2 [Example 8, trans-(8-tert-butyl-1-oxa-2-azaspiro[4.5]dec-2-en-3-yl)-[4-(3-trifluoromethylpyridin-2-yl)piperazin-1-yl]methanone] | – | – | – | – | 97.15% | 0.57% | 20.73% | 0.22% |
| CC(C)(C)[C@H]1CC[C@]2(CC1)CC(C(=O)N1CCN(c3ccc(O)cc3)CC1)=NO2 [Example 10, trans-(8-tert-butyl-1-oxa-2-azaspiro[4.5]dec-2-en-3-yl)-[4-(4-hydroxyphenyl)piperazin-1-yl]methanone] | – | – | – | – | 22.95% | 8.77% | 17.54% | 2.84% |
| CC(C)(C)[C@H]1CC[C@@]2(CC1)CC(C(=O)N1CCN(c3ccc(O)cc3)CC1)=NO2 [Example 11, cis-(8-tert-butyl-1-oxa-2-azaspiro[4.5]dec-2-en-3-yl)-[4-(4-hydroxyphenyl)piperazin-1-yl]methanone] | – | – | – | – | 62.42% | −0.37% | 28.56% | −0.05% |
| CC(C)(C)C1CCC2(CC1)CC(C(=O)N1CCc3cc(O)c(O)cc3C1)=NO2 (centres unmarked) [Example 12, (8-tert-butyl-1-oxa-2-azaspiro[4.5]dec-2-en-3-yl)-(6,7-dihydroxy-3,4-dihydro-1H-isoquinolin-2-yl)methanone] | 94.3% | 112% | 79.9% | 101% | – | – | – | – |
| CC(C)(C)[C@H]1CC[C@@]2(CC1)CC(C(=O)N1CCN(c3nsnc3Cl)CC1)=NO2 [Example 17, cis-(8-tert-butyl-1-oxa-2-azaspiro[4.5]dec-2-en-3-yl)-[4-(4-chloro-[1,2,5]thiadiazol-3-yl)piperazin-1-yl]methanone] | – | – | – | – | 58.92% | 0.33% | 14.95% | −0.05% |
| COc1cc2c(cc1OC)CN(C(=O)C1=NO[C@]3(CC[C@H](C(C)(C)C)CC3)C1)CC2 [Example 18, trans-(8-tert-butyl-1-oxa-2-azaspiro[4.5]dec-2-en-3-yl)-(6,7-dimethoxy-3,4-dihydro-1H-isoquinolin-2-yl)methanone] | – | – | – | – | 97.62% | 84.04% | 22.05% | 24.24% |
| COc1cc2c(cc1OC)CN(C(=O)C1=NO[C@]3(CC[C@@H](C(C)(C)C)CC3)C1)CC2 [Example 19, cis-(8-tert-butyl-1-oxa-2-azaspiro[4.5]dec-2-en-3-yl)-(6,7-dimethoxy-3,4-dihydro-1H-isoquinolin-2-yl)methanone] | – | – | – | – | 95.49% | 70.81% | 22.55% | 13.41% |
